The values below come from ChEMBL document CHEMBL2176899, “Structure-activity relationships and blood distribution of antiplasmodial aminopeptidase-1 inhibitors” (J Med Chem, 2012).

Series [1] deals with Plasmodium falciparum. As to the kind of experiment: microbe, parasite or virus in culture. To be noted: K1, 72 h.
Description: Antimalarial activity against Plasmodium falciparum K1 infected in human O positive erythrocytes under low oxygen atmosphere after 72 hrs by spectrophotometric analysis
Series [2] has as its target T1, Aminopeptidase N (Sus scrofa, UniProt P15145).
T1 sequence (P15145 whole entry): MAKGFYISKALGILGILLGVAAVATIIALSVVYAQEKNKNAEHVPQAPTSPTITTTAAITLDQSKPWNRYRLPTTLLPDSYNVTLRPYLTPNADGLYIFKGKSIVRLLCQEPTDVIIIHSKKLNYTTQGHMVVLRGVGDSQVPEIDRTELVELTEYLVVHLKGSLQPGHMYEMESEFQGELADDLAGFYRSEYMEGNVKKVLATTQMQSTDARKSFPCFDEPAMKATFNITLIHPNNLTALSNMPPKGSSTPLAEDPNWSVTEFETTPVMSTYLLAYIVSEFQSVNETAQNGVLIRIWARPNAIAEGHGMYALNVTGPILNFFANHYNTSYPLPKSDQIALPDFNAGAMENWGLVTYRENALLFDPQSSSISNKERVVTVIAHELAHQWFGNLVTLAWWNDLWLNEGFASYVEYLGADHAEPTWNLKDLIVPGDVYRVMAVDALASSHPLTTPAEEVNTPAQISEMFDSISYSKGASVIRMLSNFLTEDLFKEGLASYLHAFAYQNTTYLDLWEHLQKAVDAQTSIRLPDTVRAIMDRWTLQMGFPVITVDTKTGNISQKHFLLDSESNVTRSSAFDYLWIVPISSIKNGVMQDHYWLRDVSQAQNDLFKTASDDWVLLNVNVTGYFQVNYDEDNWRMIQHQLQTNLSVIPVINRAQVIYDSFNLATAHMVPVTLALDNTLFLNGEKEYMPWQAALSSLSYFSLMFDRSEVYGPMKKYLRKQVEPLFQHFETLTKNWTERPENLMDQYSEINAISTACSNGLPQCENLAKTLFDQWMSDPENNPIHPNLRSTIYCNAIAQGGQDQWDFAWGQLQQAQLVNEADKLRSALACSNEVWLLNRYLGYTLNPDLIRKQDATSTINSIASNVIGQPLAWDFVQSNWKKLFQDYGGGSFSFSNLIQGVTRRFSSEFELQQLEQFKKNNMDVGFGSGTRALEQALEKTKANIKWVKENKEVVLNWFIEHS
The series can be described thus: Inhibition of porcine kidney microsomal neutral aminopeptidase using Leu-pNA as substrate preincubated for 10 mins.

Series [3] relates to MRC5. As to the kind of experiment: Cytotoxicity against human MRC5 SV2 cells after 72 hrs by resazurin fluorimetric analysis. The format is cell-based. To be noted: MRC5, 72 h.
The nature of series [4]: Inhibition of Plasmodium falciparum AM1 using Leu-pNA as substrate preincubated for 10 mins.
A short description of series [5]: Partition coefficient, log D of the compound in octanol-phosphate buffer at pH 7.4. In kind it is physicochemical.
The nature of series [6]: Solubility of the compound in PBS at pH 7.4 after 24 hrs. In kind it is physicochemical.
The nature of series [7]: Half life in human plasma. In kind it is ADME, cell-free.
Series [8] can be described thus: Half life in rat plasma. The format is ADME, cell-free.
Series [9] deals with Plasmodium falciparum. The series can be described thus: microbe, parasite or virus in culture. To be noted: 3D7, 72 h.
Description: Antimalarial activity against Plasmodium falciparum 3D7 infected in human O positive erythrocytes under low oxygen atmosphere after 72 hrs by spectrophotometric analysis
Series [10] in a line: AUC (0 to infinity) in CD1 mouse plasma at 50 mg/kg, ip. More on the design: time infinity, dose 50 mg/kg, route intraperitoneal. In kind it is ADME, organism-based.
Series [11] in a line: AUC (0 to last) in CD1 mouse RBC at 50 mg/kg, ip. The format is ADME, organism-based, Erythrocyte. More on the design: dose 50 mg/kg, route intraperitoneal, time 0 - last. To be noted: red blood cells.
The target of series [12] is Carbonic anhydrase 2 (Homo sapiens) (UniProt P00918). The series can be described thus: Inhibition of human erythrocyte carbonic anhydrase-2 assessed as hydrolysis of 4-nitrophenylacetate at 1 to 50 uM.
Series [13] relates to Liver. The series can be described thus: Metabolic stability in mouse liver microsomes at 1 uM after 30 mins. To be noted: 0.5 h. In kind it is ADME, Microsome. In general terms: Liver microsomes are a subcellular fraction often used to study metabolism.
Series [14] is described as follows: Elimination half life in CD1 mouse RBC at 50 mg/kg, ip. In kind it is ADME, organism-based, Erythrocyte. Details: dose 50 mg/kg, route intraperitoneal. To be noted: red blood cells, read-out: beta t1/2 (converted).
The nature of series [15]: Drug metabolism assessed as N-(4-Fluorobenzyl)-N'-hydroxy-2-[1-phenylmeth-(E)-ylidene]malonamide fromation through GSH-adduct at 1 uM up to 60 mins. To be noted: 1 h.
Series [16] can be described thus: AUC (0 to infinity) in CD1 mouse RBC at 50 mg/kg, ip. The format is ADME, organism-based, Erythrocyte. Details: time infinity, dose 50 mg/kg, route intraperitoneal. To be noted: in vivo.
Series [17] concerns Plasma. As to the kind of experiment: Metabolic stability in CD1 mouse plasma assessed as N-(4-Fluorobenzyl)-N'-hydroxy-2-[1-phenylmeth-(E)-ylidene]malonamide fromation through GSH-adduct at 50 mg/kg, ip. The format is ADME, organism-based. Details: dose 50 mg/kg, route intraperitoneal. To be noted: in vivo.
Series [18] can be described thus: Metabolic stability in CD1 mouse RBC assessed as N-(4-Fluorobenzyl)-N'-hydroxy-2-[1-phenylmeth-(E)-ylidene]malonamide fromation through GSH-adduct at 50 mg/kg, ip. The format is ADME, organism-based, Erythrocyte. More on the design: dose 50 mg/kg, route intraperitoneal. To be noted: in vivo.
The test system of series [19] is Plasma. As to the kind of experiment: Tlast in CD1 mouse plasma at 50 mg/kg, ip. In kind it is ADME, organism-based. Details: dose 50 mg/kg, route intraperitoneal. To be noted: in vivo.
Series [20] is described as follows: AUC (0 to last) in CD1 mouse plasma at 50 mg/kg, ip. The format is ADME, organism-based. More on the design: time 0 - last, dose 50 mg/kg, route intraperitoneal.
Series [21] in a line: Elimination half life in CD1 mouse plasma at 50 mg/kg, ip. The format is ADME, organism-based. More on the design: dose 50 mg/kg, route intraperitoneal. To be noted: read-out: beta t1/2 (converted).

Values after ≈ are worked out from the molar mass of the structure shown. Active and inactive are the calls of the source. The calls are words filed in the database; no cut-off is given here.

Consider `O=C(NO)C(Cc1ccc(F)cc1)C(=O)NCc1ccc(F)cc1` (centres undefined), for which the IC50 in series [1] was 41.6 µM; in series [2], 3.96 µM; in series [3] it was more than 64 µM; in series [4] it was 0.258 µM.

Turning to `CC(Cc1ccccc1)(C(=O)NO)C(=O)NCc1ccc(F)cc1` (centres undefined), the IC50 in series [1] is 50.1 µM; in series [2] it was more than 10 µM; in series [3] it was more than 64 µM; in [4], 0.056 µM.

Turning to `O=C(NO)/C(=C/c1ccccc1)C(=O)NCc1ccc(F)cc1`, the IC50 in [2] was more than 10 µM; in series [4] it was 0.33 µM.

With `O=C(NO)/C(=C\c1ccc(F)cc1)C(=O)NCc1ccc(F)cc1`, the logD in series [5] amounted to 1.7. This molecule registered a solubility at 24 h in series [6] of 190 µM (≈ 63.1 µg/mL). Moreover, the IC50 in [1] stood at 30.4 µM; in series [2], 4.2 µM; in series [3], 32.2 µM; in [4], 0.043 µM. Further, the values for the half-life in series [7] and in series [8] were more than 24 h and 3 h, respectively.

In series [9], `NC(CCc1ccccc1)P(=O)(O)CC(Cc1ccccc1)C(=O)O` (centres undefined) yielded an IC50 of 24 µM.

On to `O=C(NO)C(Cc1ccccc1)C(=O)NCc1cccc(F)c1` (centres undefined), for which the IC50 in series [1] is 24.7 µM; in series [2], 2.33 µM; in [3], more than 64 µM; in [4] it was 0.21 µM.

As to `O=C(NO)C(Cc1ccccc1)C(=O)NCc1ccncc1` (centres undefined), the IC50 in series [1] was more than 64 µM; in series [2], 4.55 µM; in series [3] it was more than 64 µM; in series [4], 1.05 µM.

For `O=C(NO)/C(=C\c1ccc(F)cc1)C(=O)NCc1ccccc1`, the half-maximal inhibitory concentration (IC50) in [2] was found to be 2.4 µM; in series [4], 0.069 µM.

`CC(C)C[C@H](NC(=O)[C@@H](O)[C@H](N)Cc1ccccc1)C(=O)O` [UBENIMEX] showed an IC50 in series [9] of 8 µM.

`O=C(NO)C(Cc1ccccc1)C(=O)NCc1ccc(F)cc1` (centres undefined) returned a solubility at 24 h in series [6] of more than 200 µM. Besides, the IC50 is 17.4 µM in [1], more than 64 µM in series [3] and 0.027 µM in series [4]. The half-life in series [7] is more than 24 h; in [8] it was 0.8 h.

For the molecule `O=C(NO)C(Cc1ccccc1)C(=O)NCc1ccccc1F` (centres undefined), the IC50 in series [1] is 37.9 µM; in series [2], 2.22 µM; in [3], more than 64 µM; in [4], 0.256 µM.

In series [10], `O=C(NO)/C(=C\c1ccccc1)C(=O)NCc1ccc(F)cc1` displayed an area under the curve AUC(0-inf) of 68 µM·h. Moreover, the AUC(0-t) amounted to 90 µM·h in [11] and 66 µM·h in [20]. For the same molecule, the inhibition entry in series [12] was “inactive”. Also, the figures for the IC50 in series [1], in series [3] and in series [4] were 11 µM, 32 µM and 0.006 µM, respectively. The Stability entry in [13], in series [17] and in series [18] was “Stable” in each case. The half-life in [7] was more than 24 h; in [14], 1.5 h; in series [21] it was 1 h. In addition, the Drug metabolism entry in series [15] was “Active”. In series [16], this molecule registered an AUC of 98 µM·h. This molecule returned a Tlast in [19] of 6 h.

Turning to `O=C(NO)C(Cc1ccc(F)cc1)C(=O)NCc1ccccc1` (centres undefined), the concentration for half-maximal inhibition (IC50) in series [1] is 36.5 µM; in series [2] it was 1.32 µM; in [3] it was more than 64 µM; in series [4] it was 0.31 µM.

In the case of `O=C(NO)C(Cc1ccccc1)C(=O)NCc1ccccc1` (centres undefined), the IC50 is more than 10 µM in series [2] and 0.125 µM in series [4].

Consider `O=C(NO)/C(=C\c1ccccc1)C(=O)NCc1ccncc1`, for which the IC50 in series [2] stood at 2 µM; in [4] it was 0.44 µM.

Usually IC50 stands for the point on the concentration scale where inhibition reaches its midpoint. High values mean weaker potency, low ones greater potency. Broadly, the logD is the decadic logarithm of the distribution of all forms, ionised or not, between an organic phase and buffer at a given pH. The low end stands for lower lipophilicity, the high end for higher lipophilicity. As usually defined, the solubility is the dissolved amount per volume that the medium holds. A high value points to a readily soluble substance. As a reminder, the AUC(0-inf) is total exposure, with the tail of the curve extrapolated. Broadly, the AUC(0-t) is the area under the concentration-time curve up to a stated or last time point. A lower AUC(0-t) goes with less exposure. The term AUC denotes the area under the concentration-time curve, a measure of exposure. Read a high AUC as more exposure.
